# Experimental data: article PMC6032018, “Post-translational regulation of a Porphyromonas gingivalis regulator” (Journal of Oral Microbiology, 2018)
# Key:
# [1] = target: T1, RprY (Porphyromonas gingivalis, UniProt B2RK10); assay: EMSA with nqrA promoter DNA and in vitro ChIP after treatment with AcP; assay type: biochemical; conditions: phosphoryl donor; covalent; protein as purified already partly phosphorylated; acetylation by AcP not ruled out
# T1 construct: N-terminal His6-RprY (pETRprY), recombinant from E. coli BL21(DE3), 28 kDa ORF; already phosphorylated as purified
# T1 sequence (B2RK10 entry or part of it): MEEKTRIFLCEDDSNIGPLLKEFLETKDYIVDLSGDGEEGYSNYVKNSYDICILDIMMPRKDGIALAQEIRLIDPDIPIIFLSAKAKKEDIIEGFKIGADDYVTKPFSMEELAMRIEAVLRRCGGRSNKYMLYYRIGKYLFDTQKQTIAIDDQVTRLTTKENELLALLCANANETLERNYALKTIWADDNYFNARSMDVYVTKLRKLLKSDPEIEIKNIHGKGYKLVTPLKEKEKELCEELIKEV
# [2] = target: T1, RprY; assay: autoacetylation, anti-acetyl-lysine Western blot; assay type: biochemical; conditions: 10 mM Tris-HCl pH 8.0, 37 °C, no added enzyme; covalent (lysine acetylation); acetyl donor
Compound,EMSA with nqrA promoter DNA and in vitro ChIP after treatment with AcP [1],"autoacetylation, anti-acetyl-lysine Western blot [2]"
CC(=O)OP(=O)(O)O [acetyl phosphate],increasing concentrations of AcP resulted in increased incorporation of the labelled promoter into RprY-DNA complexes,
CC(=O)SCCNC(=O)CCNC(=O)[C@H](O)C(C)(C)COP(=O)(O)OP(=O)(O)OC[C@H]1O[C@@H](n2cnc3c(N)ncnc32)[C@H](O)[C@@H]1OP(=O)(O)O [acetyl-CoA],,RprY was dependent on both the concentration of Ac-CoA and the length of incubation
